Data reported in article PMC12131194, “Rational design, synthesis, and evaluation of novel polypharmacological compounds targeting NaV1.5, KV1.5, and K2P channels for atrial fibrillation” (The Journal of Biological Chemistry, 2025).

Columns and labels:
human TASK-1 = human TASK-1 (Homo sapiens, UniProt O14649); experiment: Whole-cell patch-clamp in transfected HEK-293 cells, TASK-1; assay type: cell-based; design: human TASK-1 (KCNK3, NM_002246); expressed in transfected cells; conditions: HEK293, +40 mV
Description: The human embryonic kidney 293 (HEK-293) cell line was obtained from the American Type Culture Collection. HEK-293 cells were cultured in Dulbecco’s modified Eagle’s medium (DMEM-F12, Invitrogen Life Technologies) supplemented with 5% (v/v) fetal bovine serum (FBS) (Thermo Fisher Scientific) and 1% antibiotics (penicillin 100 U/ml y streptomycin 100 μg/ml) (Gibco, Thermo Fisher). The cells were maintained at 37 °C and 5% CO2 atmosphere.
For the electrophysiological experiments, HEK-293 cells were transiently transfected with cDNA encoding human NaV1.5 (plasmid 145,374, Addgene), KV1.5 (NM_002234), and TASK-1 (NM_002246). […] The cells were incubated for 4 h in transfection medium OptiMEM (Invitrogen). […]
For Nav1.5, the effect of 6f at both concentrations was tested using a repetitive single test voltage pulse at −10 mV (during 20 ms) from a holding potential of −80 mV, with intervals of 5s between pulses. For Kv1.5 and TASK-1, ramp voltage protocols were applied with pulse intervals of 20 s, and the currents were analyzed at +40 mV. […]
After recording currents with stable amplitudes, the cells were treated with 6f and applied from the bath solution. Currents were continuously recorded during repetitive pulses until a stable effect was achieved. […] The inhibition percentage was calculated as follows: Inℎibition (%) = 100 ∗ (Icontrol − Idrug)/Icontrol.

[1] = tested on: human atrial cardiomyocytes from patients with AF; experiment: Patch-clamp action potential recordings, atrial cardiomyocytes of atrial fibrillation patients; assay type: cell-based
Description: A total of 10 patients with sinus rhythm (SR) (N = 5) or atrial fibrillation (AF) (N = 5) undergoing open heart surgery for coronary artery bypass grafting, heart valve replacement or heart transplantation were included in the study (Table S7). A written informed consent was given by all patients. The study protocol involving human tissue samples was approved by the responsible Ethics Committee of the Medical Faculty of Heidelberg University (Germany; S-017/2013) and was conducted in accordance with the 1964 Declaration of Helsinki.
The right atrial human tissue samples were transported in chilled Ca^2+-free solution (100 mM NaCl, 10 mM KCl, 1.2 mM KH2PO4, 5 mM MgSO4, 50 mM taurine, 5 mM 3-(N-morpholino)propanesulfonic acid (MOPS), 30 mM 2,3-butanedione monoxime and 20 mM glucose, pH 7.0 with NaOH). After dissection into small chunks, the samples were rinsed for 5 minutes with calcium-free Tyrode's solution, which was oxygenated with 100% O2 at 37 °C. The samples were then digested with collagenase type I (288 U/ml; Worthington) and protease type XXIV (5 mg/ml; Sigma-Aldrich, Steinheim, Germany) for 10 to 15 min, followed by an increase in calcium concentration to 0.2 mM. After an additional 35 min of agitation in protease-free solution, rod-shaped single cardiomyocytes were harvested. The suspension was centrifuged, and the cells were resuspended in storage (“Kraftbrühe”, KB) medium (20 mM KCl, 10 mM KH2PO4, 25 mM glucose, 40 mM D-Mannitol, 70 mM K glutamate, 10 mM β-hydroxybutyrate, 20 mM taurine, 10 mM ethylene glycol tetraacetic acid (EGTA), and 1% albumin) until usage in patch-clamp experiments.
Patch-clamp glass pipettes were fabricated from borosilicate glass (1B120F-4; World Precision Instruments). After back-filling with patch-clamp internal solution (134 mM K gluconate, 6 mM NaCl, 1.2 mM MgCl2, 1 mM Mg-ATP, 10 mM HEPES, pH 7.2 with KOH), tip resistances ranged from 5 to 10 MΩ. All experiments were carried out at room temperature under constant superfusion with patch-clamp extracellular solution containing 137 mM NaCl, 5.4 mM KCl, 1 mM MgCl2, 2 mM CaCl2, 10 mM HEPES, 10 mM glucose (pH 7.3 with NaOH). AP-recordings were performed in current clamp mode: The holding current was adjusted such that the cell’s resting membrane potential was approximately −70 mV at baseline. APs were induced by short (5 ms) depolarizing current pulses at a rate of 0.5 Hz. Data was not adjusted for potential differences caused by liquid junctions, and no leak subtraction was performed.
Data acquisition and analysis were performed using the pCLAMP10 software (Axon Instruments) and statistical analysis was done using Prism 8 (GraphPad Software). Data is presented as the mean ± standard error of the mean (SEM). Statistical comparisons were made using Dunnett’s post hoc test. A p value of < 0.05 was considered significant.

Sequence of human TASK-1 (O14649 whole entry): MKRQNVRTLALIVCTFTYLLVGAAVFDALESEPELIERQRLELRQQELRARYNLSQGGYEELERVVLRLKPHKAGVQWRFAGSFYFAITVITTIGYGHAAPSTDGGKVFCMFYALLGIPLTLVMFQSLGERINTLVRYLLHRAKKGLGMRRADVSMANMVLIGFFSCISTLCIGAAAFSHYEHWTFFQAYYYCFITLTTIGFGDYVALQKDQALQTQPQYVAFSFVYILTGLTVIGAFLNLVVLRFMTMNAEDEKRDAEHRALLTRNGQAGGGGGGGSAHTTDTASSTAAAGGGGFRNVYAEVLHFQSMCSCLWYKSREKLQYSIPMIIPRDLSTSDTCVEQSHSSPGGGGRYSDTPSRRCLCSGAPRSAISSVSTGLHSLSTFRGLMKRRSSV

CCCCN(CCCC)CC(=O)Nc1ccc(OC)cc1OC [Compound 6f, 2-(dibutylamine)-N-(2,4-dimethoxiphenyl)acetamide]
inhibition at 10 µM (human TASK-1; 10 μM): 70%
inhibition at 100 µM (human TASK-1; 100 μM): 70%
APD50 vs baseline ([1]; AF, 6.25 μM): increase in ADP50 with 6.25 μM 6f was significant
APD50 vs baseline ([1]; AF, 1, 6.25 and 12.5 μM): concentration-dependent prolongation trend
APD90 vs baseline ([1]; AF, 1, 6.25 and 12.5 μM): concentration-dependent prolongation trend
Action potential amplitude (APA) vs baseline ([1]; AF, 1, 6.25 and 12.5 μM): no changes
Maximal upstroke velocity vs baseline ([1]; AF, 1, 6.25 and 12.5 μM): no changes
Resting membrane potential (RMP) ([1]; AF, 1, 6.25 and 12.5 μM): significant concentration-dependent shift in the RMP to more negative values
